Source: patent publication US7417069B2, “Halogenated triptolide derivatives as immunomodulators and anticancer agents” (priority 2003, dated 2008)
“Also recorded” adds a separate entry of the source.

What was measured:
[1] = system: IL-2 production in Jurkat cells; experiment: IL-2 production assay (immunosuppression assay); type: cell-based, human; details: for fold less potent than triptolide in the immunosuppression assay: inhibition of IL-2 production in Jurkat cells, relative to triptolide (FIGS. 4A-B)
Description: Test samples were diluted to 1 mM in complete tissue culture medium. Aliquots were placed in microculture plates that had been coated with anti-CD3 antibody (used to stimulate the production of IL-2 by Jurkat cells), and serial dilutions were prepared so that the final concentration would encompass the range of 0.001 to 10,000 nM in log increments. Cells from an exponentially expanding culture of Jurkat human T cell line (#TIB-152 obtained from American Type Culture Collection, Manassas, Va.) were harvested, washed once by centrifugation, re-suspended in complete tissue culture medium, and diluted to a concentration of 2×10^6 cells/ml. A volume of 50 μl of Jurkat cells (1×10^5 cells) was added to wells containing 100 μl of the diluted compounds, 50 μl of PMA (10 ng/ml) was added to each well, and the plates were incubated at 37° C. in a 5% CO2 incubator. After 24 hours, the plates were centrifuged to pellet the cells, 150 μl of supernatant was removed from each well, and the samples were stored at −20° C. The stored supernatants were analyzed for human IL-2 concentration using the Luminex 100 (Luminex Corporation, Austin, Tex.), Luminex microspheres coupled with anti-IL-2 capture antibody, and fluorochrome-coupled anti-IL-2 detection antibody. The data were expressed as pg/ml of IL-2.
The data were plotted as the concentration of compound versus IL-2 concentration. The results for PG763 (14-deoxy-14α-fluorotdptolide), compared with PG490 (triptolide) and a solvent control, are given in FIG. 2. Comparative data for other 14-substituted triptolides, 14α-hydroxytriptolide (also referred to as epitriptolide; designated PG524) and 14β-(methylthio)methyltriptolide (designated PG691), compared with PG490 (triptolide), are given in FIGS. 4A-B.

[2] = system: Jurkat human T lymphoma cell line; experiment: Annexin V apoptosis assay; type: cell-based; details: induction of apoptosis in Jurkat cells, 24 hours, relative to triptolide (FIGS. 3A-B)
Description: Test samples were diluted to 1 mM in complete tissue culture medium (RPMI 1640 medium plus 5% heat-inactivated fetal calf serum, 1% HEPES, 1% pen/strep, 1% glutamine). Aliquots were placed in microculture plates and serial dilutions were prepared so that the final concentration would encompass the range of 2 to 6,000 nM with half-log increments. Cells from an exponentially expanding culture of the Jurkat human T lymphoma cell line (#TIB-152 obtained from American Type Culture Collection, Manassas, Va.) were harvested, washed once by centrifugation, re-suspended in complete tissue culture medium, and further diluted to a concentration of 1×10^6 cells/ml. A volume of 100 μl of the cells (1×10^5 cells) was added to wells containing 100 μl of the diluted compounds, and the plates were incubated at 37° C. in a 5% CO2 incubator.
After 24 hours, the plates were centrifuged to pellet the cells, and the cells were washed twice with 2% heat-inactivated fetal calf serum in PBS. […] The contents of the wells were individually transferred into test tubes, and apoptosis was analyzed using a FACSCalibur flow cytometer (BD Immunocytometry Systems, San Jose, Calif.). Cells positive for Annexin V binding were considered to be apoptotic, and the data were calculated as percent apoptotic cells. […]

[3] = system: human T cell lymphoma (Jurkat) cells; experiment: Cytotoxicity (MTT) assay; type: cell-based; details: 24 h, in comparison with triptolide (FIG. 1)
Description: Test compounds were dissolved in DMSO at a concentration of 20 mM. Further dilutions were done in RPMI 1640 medium (GIBCO, Rockville, Md.) supplemented with 10% Fetal Calf Serum (HyClone Laboratories, Logan, Utah).
Cytotoxicity of the compounds was determined in a standard MTT assay using Cell Proliferation Kit I (#1 465 007, Roche Diagnostics, Mannheim, Germany). Briefly, human T cell lymphoma (Jurkat) cells (4×10^5 per well) were cultured for 24 h, in 96-well tissue culture plates, in the presence of serial three-fold dilutions of test compounds or medium containing the same concentration of DMSO as in the test samples at each dilution point. The cultures were then supplemented with 10 μl/well MTT reagent for 4h and then with 0.1 ml/well solubilizing reagent for an additional 16 h. Optical density at 570 nm (OD570) was measured on a ThermoScan™ microplate reader (Molecular Devices, Menlo Park, Calif.). The data is presented as OD570 values versus concentration of the compounds. The results for PG763 (14-deoxy-14α-fluorotriptolide), compared with PG490 (triptolide) and a medium control, are given in FIG. 1.

SMILES | fold less potent than triptolide in the immunosuppression assay [1] | fold less potent than triptolide in the apoptosis assay [2] [fold] | inhibition of IL-2 production in Jurkat cells ([1]; anti-CD3 and PMA stimulated, 24 hours, in comparison with triptolide (FIG. 2)) | cytotoxicity in Jurkat cells [3]
CSCOC1C2(C(C)C)OC2C2OC23C2(C)CCC4=C(COC4=O)C2CC2OC213 (stereo not drawn) [14β-(methylthio)methyl triptolide, 14-β-(methylthio)methyl triptolide] | approximately 60 fold | ~40 |  | 
CC(C)[C@]12O[C@H]1[C@@H]1O[C@]13[C@]1(O[C@H]1C[C@H]1C4=C(CC[C@@]13C)C(=O)OC4)[C@H]2F [PG763, 14-deoxy-14α-fluorotriptolide] |  |  | nearly equivalent to that of triptolide; also recorded: in a dose-dependent manner, at concentrations comparable to those in similar assay using triptolide | nearly equivalent to that of triptolide; also recorded: in a dose-dependent manner, at concentrations comparable to those in similar assays using triptolide
CC(C)[C@]12O[C@H]1[C@@H]1O[C@]13[C@]1(O[C@H]1C[C@H]1C4=C(CC[C@@]13C)C(=O)OC4)[C@H]2O [epitriptolide, 14-α-hydroxytriptolide] | approximately 30 fold | ~25 |  | 
